The test system of data set [1] is adenosine deaminase. Nature of the data set: Stability to adenosine deaminase (residual percentage by HPLC). In kind it is in vitro ADME, young calf. The conditions noted are these: 0 min; pH 6.8, 37° C., 5 units adenosine deaminase. How it is done: (§1) Sample (0.05 ml) was dissolved into 20 ml of 0.1M phosphate buffer (pH 6.8), and 5 units of adenosine deaminase originated from young calf intestinal mucous membrane (SIGMA Product No. A-1155) was added. While keeping the resulting mixture at a constant temperature of 37° C., its 1 ml portion was sampled out at predetermined intervals. After adding 1 μmole of coformycin and 10-hold diluting the mixture with water, residual percentage of the sample was determined by reverse phase high performance liquid chromatography (column: Senshu Pak ODS-5121-N, 6.phi.×150 mm; eluent: 0.1M citrate buffer-acetonitrile-methanol (50:2:1); flow rate: 1.8 ml/min.; detection: UV detector, 254 nm).

Assay in data set [2]: as above
In kind it is in vitro ADME, young calf. Conditions: bovine, pH 6.8, 37° C., 5 units adenosine deaminase; for remaining at 0.5 h: 30 min; for remaining at 1 h: 60 min; for remaining at 2 h: 120 min. The procedure:
as §1

For data set [3], the system named is HIV. Kind of data set: Anti-HIV activity in MT-4 cells (viral antigen expression, fluorescent antibody method). In kind it is cell-based. How it is done:
Anti-HIV activity (anti-Human Immunodeficiency Virus activity) was measured in the following manner. Thus, about 100,000 cells/ml of MT-4 cells were placed in a 24-well tray, and 100 μl of a solution containing a predetermined quantity of a compound of this invention was added thereto. After culturing it at 37° C. for 2 hours in a 5% (v/v) carbon dioxide incubator, 2.5×10^5 infection units of HIV was added and cultured for 4 days. Then, a portion of the culture fluid was applied onto a slide glass and immobilized with acetone, after which expression of the viral antigen was tested according to the fluorescent antibody method. As the primary antibody of the fluorescent antibody method, a serum of AIDS patient was used. As the secondary antibody, FITC-labelled anti-human IgG was used.
The test were conducted in a comparative manner, using oxetanocin A as a control substance for each of Experiment 1 and 2.

Data set [4] deals with cytomegalovirus (A0169 strain). Kind of data set: Anti-cytomegalovirus activity (plaque reduction in human embryo fibroblast). In kind it is cell-based. Conditions: for EC50: Human betaherpesvirus 5, 240 h, plaque number, human embryo fibroblast, 10 days, 37° C., read-out: Anti-cytomegalovirus activity ED50 (50% inhibitory value). The procedure: Anti-cytomegalovirus activity was measured in the following manner. Thus, a 35 mm dish having a single layer of human embryo fibroblast was infected with 100 PFU (Plaque Forming Units) of cytomegalovirus (A0169 strain). After adsorption for one hour, it was covered with a layer of a medium [0.5% agarose and 2% fetal calf serum] containing a varied concentration of a compound of this invention. After culturing it for 10 days at 37° C. in a 5% (v/v) carbon dioxide incubator, the number of plaques formed was measured.

Data set [5] concerns virus. The conditions noted are these: prior art: Journal of Antibiotics 39, 1623-25 (1986), EP-A2-0182315; cited from earlier work.

SMILES strings stand for the structures. Converted amounts (≈) assume the structure as drawn.

As to `Nc1nc(F)nc2c1ncn2[C@@H]1O[C@H](CO)[C@H]1CO` [Compound No. 1, 2-Fluoro-oxetanocin A], the “Residual percentage (%)” value in data set [1] stood at 100%. In data set [2], the amount remaining at 10 min worked out at 100%, the amount remaining at 0.5 h is 100%, the fraction remaining at 1 h came out at 100% and the fraction remaining at 2 h is 100%. Besides, the “activity against HIV (in words)” value in data set [3] was “excellent activities against HIV”. Moreover, in data set [4], the “activity against cytomegalovirus (in words)” value is “excellent activity against cytomegalovirus” and the EC50 was determined as 0.3 µg/mL (≈ 1.11 µM).

`Nc1nc(F)nc2c1ncn2[C@@H]1O[C@H](COP(=O)(O)O)[C@H]1CO` [Compound No. 5, 2-Fluoro-oxetanocin A 4'-phosphate]: the “Residual percentage (%)” value in data set [1] is 100%. Further, in data set [2], the amount remaining at 10 min worked out at 100%, the amount remaining at 0.5 h is 100%, the fraction remaining at 1 h turned out to be 100% and the fraction remaining at 2 h stood at 100%.

`Nc1nc(Cl)nc2c1ncn2[C@@H]1O[C@H](COP(=O)(O)O)[C@H]1CO` [Compound No. 6, 2-Chloro-oxetanocin A 4'-phosphate]: in data set [1], the “Residual percentage (%)” value was found to be 100%. Also, in data set [2], the share remaining at 10 min was determined as 100%, the share remaining at 0.5 h stood at 100%, the share remaining at 1 h came out at 100% and the share remaining at 2 h was determined as 100%. Moreover, the “activity against HIV (in words)” value in data set [3] is “excellent activities against HIV”.

Consider `Nc1nc(Cl)nc2c1ncn2[C@@H]1O[C@H](CO)[C@H]1CO` [Compound No. 2, 2-Chloro-oxetanocin A], for which, in data set [1], the “Residual percentage (%)” value turned out to be 100%. In data set [2], this compound registered a share remaining at 10 min of 100%, a share remaining at 0.5 h of 100%, an amount remaining at 1 h of 100% and an amount remaining at 2 h of 100%. Moreover, the “activity against HIV (in words)” value in data set [3] is on record as “excellent activities against HIV”.

As to `Nc1ncnc2c1ncn2[C@@H]1O[C@H](CO)[C@H]1CO` [Oxetanocin A], the “Residual percentage (%)” value in data set [1] worked out at 100%. Further, in data set [2], the amount remaining at 10 min is 85%, the fraction remaining at 0.5 h was 28%, the amount remaining at 1 h came out at 0% and the share remaining at 2 h turned out to be 0%. Moreover, the EC50 in data set [4] is 13 µg/mL (≈ 51.7 µM).

With `Nc1ncnc2c1ncn2[C@@H]1O[C@H](CO)[C@H]1CO` [Oxetanocin], the “antiviral activity (in words)” value in data set [5] is “having an antiviral activity”.

Source of the values: US5283331A, “2-halogeno-oxetanocin A and phosphoric ester thereof” (Nippon Kayaku Kabushiki Kaisha, priority 1990, dated 1994).
